Among the data in DBAASP are MIC values, retold here.

The structures appear in SMILES notation. In brackets after ≈: the same amount, converted by molar mass.

Test systems include Candida krusei ATCC 6258; Listeria monocytogenes; Escherichia coli UTI89; Escherichia coli D31; Escherichia coli O157:H7; Escherichia coli J2210; Escherichia coli JJ2487; Escherichia coli MC1061.
Common to all, as to test: ≥ marks a high value that may be exact or a test limit, other limits are often not marked, values filed in µg/mL are converted to µM
For assay [1], the system named is Candida glabrata ATCC 90525.
Assay [2] deals with Candida parapsilosis ATCC 20224.
In assay [3] the test system is Candida albicans ATCC 2048.
For assay [4], the system named is Candida tropicalis ATCC 20240.
The subject of assay [5] is Enterococcus faecalis ATCC 29212.
Assay [6] has as its system Staphylococcus epidermidis ATCC 35984.
Assay [7] deals with Listeria monocytogenes ATCC 7644.
Assay [8] has as its system Staphylococcus aureus ATCC 25923.
The subject of assay [9] is Staphylococcus aureus ATCC 29213.
Assay [10] concerns Pseudomonas aeruginosa ATCC 15442.
The subject of assay [11] is Staphylococcus aureus ATCC 6538.
Assay [12] has as its system Listeria monocytogenes ATCC 19115.
For assay [13], the system named is Listeria monocytogenes NCTC 18890.
The test system of assay [14] is Listeria monocytogenes ATCC 19114.
Assay [15] relates to Staphylococcus epidermidis.
Assay [16] has as its system Escherichia coli K12 MG1655.
The test system of assay [17] is Salmonella enterica subsp. enterica serovar Typhimurium ATCC 14028.
Assay [18] has as its system Pseudomonas aeruginosa ATCC 10145.
In assay [19] the test system is Klebsiella pneumoniae ATCC 700603.
The test system of assay [20] is Staphylococcus aureus ATCC 27660.
For assay [21], the system named is Escherichia coli BCRC 13B0198.
Assay [22] deals with Enterococcus faecium BCRC 15B0132.
Assay [23] deals with Acinetobacter baumannii BCRC 14B0091.
Assay [24] concerns Acinetobacter baumannii BCRC 14B0100.
For assay [25], the system named is Acinetobacter baumannii BCRC 14B0097.
The test system of assay [26] is Escherichia coli BCRC 13B0207.
Assay [27] concerns Legionella pneumophila Lens.
The subject of assay [28] is Salmonella typhimurium CMCC 50013.
The test system of assay [29] is Escherichia coli ATCC 25922.
Assay [30] concerns Bacillus subtilis KCTC 3068.
The test system of assay [31] is Salmonella typhimurium SL1344.
Assay [32] relates to Salmonella enterica subsp. enterica serovar Enteritidis MH91989.

The MIC is the lowest concentration found to suppress growth. The low end stands for greater potency, the high end for weaker potency.

In the case of `CC(C)C[C@H](NC(=O)[C@H](C)N)C(=O)N[C@@H](CCC(N)=O)C(=O)NCC(=O)N[C@@H](C)C(=O)N[C@@H](CCCCN)C(=O)N[C@@H](CCC(=O)O)C(=O)N[C@@H](CCCN=C(N)N)C(=O)N[C@@H](C)C(=O)N[C@@H](Cc1cnc[nH]1)C(=O)N[C@@H](CCC(N)=O)C(=O)N[C@@H](CCC(N)=O)C(=O)O` [ALQGAKERAHQQ], the minimal inhibitory concentration (MIC) was at least 260 µM in [1]; at least 270 µM against Candida krusei ATCC 6258; at least 270 µM in [2]; at least 280 µM in assay [3]; at least 75 µM in [4].

As to `CC(C)C[C@H](NC(=O)[C@H](C)NC(=O)[C@H](Cc1cnc[nH]1)NC(=O)[C@H](Cc1cnc[nH]1)NC(=O)CNC(=O)[C@H](CC(C)C)NC(=O)[C@H](Cc1cnc[nH]1)NC(=O)[C@H](CO)NC(=O)[C@H](C)N)C(=O)N[C@@H](CC(=O)O)C(=O)N[C@@H](Cc1cnc[nH]1)C(=O)N[C@@H](CC(C)C)C(=O)N[C@@H](CC(C)C)C(=O)N[C@@H](CCCCN)C(=O)O` [ASHLGHHALDHLLK], the MIC in assay [5] is 8070 µM (≈ 12500 µg/mL); in assay [6], at least 8070 µM; in assay [7], at least 3230 µM; in assay [8], 8070 µM (≈ 12500 µg/mL); in assay [9], 8070 µM (≈ 12500 µg/mL); in assay [10] it was at least 8070 µM. Also, the MIC is 8070 µM (≈ 12500 µg/mL) in [11]; at least 3230 µM in assay [12]; at least 3230 µM in [13]; at least 3230 µM in assay [14]; at least 3230 µM in the assay with Listeria monocytogenes.

Consider `CC[C@H](C)[C@H](NC(=O)[C@H](CCCCN)NC(=O)[C@@H](N)CCCCN)C(=O)NCC(=O)N[C@@H](CCC(N)=O)C(=O)N[C@@H](CCCCN)C(=O)N[C@H](C(=O)N[C@@H](CCCCN)C(=O)N[C@@H](CC(N)=O)C(=O)N[C@@H](Cc1ccccc1)C(=O)N[C@@H](Cc1ccccc1)C(=O)N[C@@H](CCC(N)=O)C(=O)N[C@@H](CCCCN)C(=O)N[C@@H](CC(C)C)C(=O)O)[C@@H](C)CC` [KKIGQKIKNFFQKL], for which the MIC is at least 50 µM in assay [15], at least 50 µM in assay [16], at least 50 µM in the assay on Escherichia coli UTI89 and above 50 µM in assay [17].

On to `CC[C@H](C)[C@H](NC(=O)CNC(=O)[C@H](CCCCN)NC(=O)[C@H](Cc1c[nH]c2ccccc12)NC(=O)[C@H](CC(C)C)NC(=O)[C@H](CCCCN)NC(=O)[C@H](CCCCN)NC(=O)[C@H](C)NC(=O)[C@H](CCCCN)NC(=O)[C@H](CCCCN)NC(=O)[C@H](Cc1ccccc1)NC(=O)CNC(=O)[C@H](CCCCN)NC(=O)[C@H](C)NC(=O)[C@H](Cc1ccccc1)NC(=O)[C@@H](NC(=O)[C@H](CCCCN)NC(=O)[C@@H](NC(=O)[C@H](CC(C)C)NC(=O)[C@H](CCCCN)NC(=O)[C@@H](N)CCCCN)[C@@H](C)CC)C(C)C)C(=O)NCC(=O)O` [KKLIKVFAKGFKKAKKLWKGIG], for which the MIC is 1.88 µM (≈ 4.73 µg/mL) in assay [18], 0.94 µM (≈ 2.37 µg/mL) in the assay with Escherichia coli D31, 1.88 µM (≈ 4.73 µg/mL) in assay [19] and 0.97 µM (≈ 2.44 µg/mL) in assay [20].

For the molecule `CC(=O)N[C@@H](CCCCN)C(=O)N[C@@H](CCCCN)C(=O)N[C@@H](Cc1c[nH]c2ccccc12)C(=O)N[C@@H](CCCN=C(N)N)C(=O)N[C@@H](CCCCN)C(=O)N[C@@H](Cc1c[nH]c2ccccc12)C(=O)N[C@@H](CC(C)C)C(=O)N[C@@H](C)C(=O)N[C@@H](CCCCN)C(=O)N[C@@H](CCCCN)C(N)=O` [KKWRKWLAKK], the minimal inhibitory concentration (MIC) in assay [21], in assay [22], in [23], in assay [24], in assay [25] and in [26] was at least 46.7 µM each time.

Turning to `CC[C@H](C)[C@H](NC(=O)[C@H](CC(C)C)NC(=O)[C@H](CC(=O)O)NC(=O)[C@@H](NC(=O)[C@@H](NC(=O)[C@H](Cc1ccccc1)NC(=O)[C@H](CCC(N)=O)NC(=O)[C@@H](N)CCSC)[C@@H](C)CC)[C@@H](C)O)C(=O)N[C@@H](CCCCN)C(=O)N[C@@H](CCCCN)C(=O)N[C@@H](C)C(=O)N[C@H](C(=O)N[C@@H](CC(=O)O)C(=O)N[C@H](C(=O)N[C@H](C(=O)N[C@@H](CCCCN)C(=O)NCC(=O)N[C@@H](CC(C)C)C(=O)N[C@@H](Cc1ccccc1)C(=O)NCC(=O)N[C@@H](CC(N)=O)C(=O)N[C@@H](CCCCN)C(=O)O)[C@@H](C)CC)C(C)C)C(C)C` [MQFITDLIKKAVDVIKGLFGNK], in assay [27], the minimal inhibitory concentration (MIC) came to 1.26 µM (≈ 3.12 µg/mL).

Regarding `CC[C@H](C)[C@H](NC(=O)[C@@H](N)CO)C(=O)N[C@@H](CO)C(=O)N[C@@H](CC(C)C)C(=O)N[C@@H](CC(C)C)C(=O)N[C@@H](Cc1ccc(O)cc1)C(=O)NCC(=O)N[C@@H](CCCN=C(N)N)C(=O)N[C@@H](CCCCN)C(=O)N[C@@H](CCCCN)C(=O)N[C@@H](CCCN=C(N)N)C(=O)N[C@@H](CCCN=C(N)N)C(=O)N[C@@H](CCC(N)=O)C(=O)N[C@@H](CCCN=C(N)N)C(=O)N[C@@H](CCCN=C(N)N)C(=O)N[C@@H](CCCN=C(N)N)C(=O)O` [SISLLYGRKKRRQRRR], the minimal inhibitory concentration (MIC) in assay [28] was 20.8 µM (≈ 43.1 µg/mL); in assay [9] it was 11 µM (≈ 22.8 µg/mL); in [29], 10.3 µM (≈ 21.4 µg/mL); in assay [30], 5.9 µM (≈ 12.2 µg/mL).

As for `CC[C@H](C)[C@H](NC(=O)[C@H](CCCN=C(N)N)NC(=O)[C@H](CCCN=C(N)N)NC(=O)[C@@H]1CCCN1C(=O)[C@@H]1CCCN1C(=O)[C@H](CCCN=C(N)N)NC(=O)[C@@H]1CCCN1C(=O)[C@H](CCCN=C(N)N)NC(=O)[C@@H]1CCCN1C(=O)[C@H](CCCCN)NC(=O)[C@H](Cc1ccc(O)cc1)NC(=O)[C@@H]1CCCN1C(=O)[C@H](CCCCN)NC(=O)[C@H](CCCCN)NC(=O)[C@H](CC(=O)O)NC(=O)[C@@H](N)C(C)C)C(=O)N[C@@H](Cc1ccc(O)cc1)C(=O)N[C@@H](CC(N)=O)C(=O)N[C@@H](CCCN=C(N)N)C(N)=O` [VDKKPYKPRPRPPRRIYNR], the MIC against Escherichia coli O157:H7 stood at 0.644 µM (≈ 1.57 µg/mL); in the assay with Escherichia coli J2210 it was 0.0821 µM (≈ 0.2 µg/mL); in assay [31], 0.172 µM (≈ 0.42 µg/mL); against Escherichia coli JJ2487, 0.123 µM (≈ 0.3 µg/mL); in the assay on Escherichia coli MC1061, 0.0616 µM (≈ 0.15 µg/mL); in [32], 0.172 µM (≈ 0.42 µg/mL).
